Source: PubChem BioAssay (NCI)
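Step 1: Grow cells in 96-well plates. Step 2: Expose to compound for 48 hours at 5 concentrations. Step 3: Interpolate endpoints linearly; if unreached, use highest concentration. GI50: concentration for 50% inhibition of growth. TGI: total growth inhibition.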

Assays:
Assay in all cases: NCI tumour cell line growth inhibition, 48 h
CAKI-1 renal = system: CAKI-1 renal
CCRF-CEM leukemia = system: CCRF-CEM leukemia
EKVX NSCLC = system: EKVX NSCLC
HCT-116 colon = system: HCT-116 colon
HOP-62 NSCLC = system: HOP-62 NSCLC
K-562 leukemia = system: K-562 leukemia
M14 melanoma = system: M14 melanoma
MALME-3M melanoma = system: MALME-3M melanoma
MOLT-4 leukemia = system: MOLT-4 leukemia
OVCAR-5 ovarian = system: OVCAR-5 ovarian
OVCAR-8 ovarian = system: OVCAR-8 ovarian
SNB-19 CNS = system: SNB-19 CNS
SNB-75 CNS = system: SNB-75 CNS
TK-10 renal = system: TK-10 renal
UACC-257 melanoma = system: UACC-257 melanoma

Row | Compound | TGI (CAKI-1 renal) [µM] | TGI (CCRF-CEM leukemia) [µM] | TGI (EKVX NSCLC) [µM] | TGI (HCT-116 colon) [µM] | TGI (HOP-62 NSCLC) [µM] | TGI (K-562 leukemia) [µM] | TGI (M14 melanoma) [µM] | TGI (MALME-3M melanoma) [µM] | TGI (MOLT-4 leukemia) [µM] | TGI (OVCAR-5 ovarian) [µM] | TGI (OVCAR-8 ovarian) [µM] | TGI (SNB-19 CNS) [µM] | TGI (SNB-75 CNS) [µM] | TGI (TK-10 renal) [µM] | TGI (UACC-257 melanoma) [µM] | GI50 (HCT-116 colon) [µM]
1 | COc1ccc(N2C(=O)C3c4[nH]c5ccccc5c4C4CCCCCCCCCCC4C3C2=O)cc1 (configuration not stated) | > 100 | > 43.7 | > 52.8 | 15.6 | > 55 | > 78.3 | 27.1 | > 47.2 | 37.4 | > 64.6 | 9.61 | 40.8 | 55 | > 73.2 | > 100 | 
2 | CCN1CCC(O)(c2ccc(C)cc2)C(C(=O)c2ccc(C)cc2)C1 (configuration not stated) | 31.3 | 56 | 36.1 | 30.3 | > 100 | > 100 | > 57.8 | 35.1 | > 71.5 | 47.4 | 49.9 | > 100 | > 100 | > 61 | 36.6 | 
3 | CCOC(=O)/C(=C\c1ccc(O)c(OC)c1)C(=O)c1ccccc1 | > 58.7 | 27.4 | > 53.3 | 28.7 |  | > 31.8 | > 48 | > 49 | > 52.2 | > 59.3 | 18.3 | > 45.8 | 89.5 | > 57.5 | > 49.7 | 
4 | COc1cccc(-c2cc(=O)c3cc(OC)c(OC)cc3[nH]2)c1 |  | > 100 | > 100 | > 100 | > 100 | > 100 | > 100 | > 100 | > 100 |  | > 100 | > 100 | > 100 | > 100 | > 100 | 59.2
5 | COc1c(Cl)c2c(c(OC)c1OC)-c1ccc(OC)c(=O)c(Cl)c1C(NC(C)=O)CC2 (configuration not stated) | > 100 | > 33.8 | > 100 | 0.322 | > 27.2 | > 100 | 4.61 | > 100 | > 100 | > 100 |  | > 100 | 1.1 | > 100 | > 100 | 
6 | COC(=O)c1ccc(OCc2ccc3nc(OC)c(OC)nc3c2)cc1 | > 100 | > 100 | > 100 | > 100 | > 100 | > 100 | > 100 | > 100 |  | > 100 | > 100 | > 100 | > 100 | > 100 | > 100 | 
7 | OC12c3ccccc3C1(N1CCOCC1)CCCCC21OCCCO1 (configuration not stated) | > 100 | > 100 |  | > 100 | > 100 | > 100 | > 100 | > 100 | > 100 | > 100 | > 100 | > 100 | > 100 | > 100 | > 100 | 
8 | O=C1CCCCC1CN1CCCC1 (configuration not stated) |  | > 100 | > 100 | > 100 | > 100 | > 100 | > 100 |  | > 100 | > 100 | > 100 |  | > 100 | > 100 | > 100 | 
